Laboratory results as given in patent US6194441A, “Oxazolidinone derivatives and their use as antibacterial agents” (Zeneca Ltd., priority 1997, dated 2001).
Converted amounts (≈) assume the structure as drawn. Structures can show the parent of a compound that is named as a salt.

Assays:
[1] = test system: Staphylococcus aureus Oxford; assay: MIC by agar-dilution technique, S. aureus Oxford; assay type: cell-based; details: IsoSensitest agar, inoculum 10^4 CFU/spot, 37° C., 24 hours, Oxford strain
Description: (§1) The following results were obtained on a standard in vitro test system. The activity is described in terms of the minimum inhibitory concentration (MIC) determined by the agar-dilution technique with an inoculum size of 10^4 CFU/spot.
(§2) The organisms were tested on a standard semi-defined susceptability test medium (IsoSensitest agar), using an inoculum of 10^4 CFU/spot and an incubation temperature of 37° C. for 24 hours. Typically, compounds are active in the range 0.01 to 128 μg/ml.

[2] = test system: Staphylococcus aureus Novb. Res.; assay: MIC by agar-dilution technique, S. aureus novobiocin resistant; assay type: cell-based; details: 24 h
Description: as §1, §2

[3] = test system: Staphylococcus aureus MRQR; assay: MIC by agar-dilution technique, S. aureus MRQR; assay type: cell-based; details: IsoSensitest agar, inoculum 10^4 CFU/spot, 37° C., 24 hours, methicillin resistant quinolone resistant
Description: as §1, §2

[4] = test system: Coagulase Negative Staphylococci MS; assay: MIC by agar-dilution technique, coagulase negative staphylococci MS; assay type: cell-based; details: IsoSensitest agar, inoculum 10^4 CFU/spot, 37° C., 24 hours, methicillin sensitive
Description: as §1, §2

[5] = test system: Coagulase Negative Staphylococci MR; assay: MIC by agar-dilution technique, coagulase negative staphylococci MR; assay type: cell-based; details: IsoSensitest agar, inoculum 10^4 CFU/spot, 37° C., 24 hours, methicillin resistant
Description: as §1, §2

[6] = test system: Streptococcus pyogenes C203; assay: MIC by agar-dilution technique, S. pyogenes C203; assay type: cell-based; details: IsoSensitest agar, inoculum 10^4 CFU/spot, 37° C., 24 hours
Description: as §1, §2

Enterococcus faecalis = assay: MIC by agar-dilution technique, E. faecalis; assay type: cell-based; details: IsoSensitest agar, inoculum 10^4 CFU/spot, 37° C., 24 hours
Description: as §1, §2

Bacillus subtilis = assay: MIC by agar-dilution technique, B. subtilis; assay type: cell-based; details: IsoSensitest agar, inoculum 10^4 CFU/spot, 37° C., 24 hours
Description: as §1, §2

Solubility in water = assay type: physicochemical; details: dihydrochloride salt

| solubility (Solubility in water) [µg/mL] | Structure (SMILES) | MIC [1] [µg/mL] | MIC [2] [µg/mL] | MIC [3] [µg/mL] | MIC [4] [µg/mL] | MIC [5] [µg/mL] | MIC [6] [µg/mL] | MIC (Enterococcus faecalis) [µg/mL] | MIC (Bacillus subtilis) [µg/mL] |
| --- | --- | --- | --- | --- | --- | --- | --- | --- | --- |
| – | CC(=O)NC[C@H]1CN(c2ccc(-n3cnc(C=CC#N)c3)c(F)c2)C(=O)O1 [Example 2] | 0.125 (≈ 0.338 µM) | 0.25 (≈ 0.677 µM) | 1 (≈ 2.71 µM) | 0.06 (≈ 0.162 µM) | 0.25 (≈ 0.677 µM) | 0.125 (≈ 0.338 µM) | 0.25 (≈ 0.677 µM) | 0.25 (≈ 0.677 µM) |
| ~10000 | CC(=O)NC[C@H]1CN(c2ccc(-n3cnc(/C=C/c4ccccn4)c3)c(F)c2)C(=O)O1 [Example 11 dihydrochloride salt, N-[(5S)-3-(3-Fluoro-4-(4-(E-2-(Pyrid-2-yl)ethenyl)imidazol-1-yl)phenyl)-2-oxooxazolidin-5-ylmethyl]acetamide] | – | – | – | – | – | – | – | – |
